# Where “and” joins values, the source holds several entries; their conditions need not be identical. Equal entries are not always repeated. Where two headings read alike, the source gives them in different places.
# Assays:
# [1] = test system: p53 signaling (p53RE-bla HCT-116 cells); assay: cells; format: cell-based
# [2] = test system: p53 signaling (p53RE-bla HCT-116 cells); assay: cells; format: cell-based; set-up: efficacy: unit not given here; conditions: for EC50: HCT-116
# in vitro = conditions: male, Sprague Dawley, rat, microsomes, pH 7.4
# [3] = test system: p53 signaling (p53RE-bla HCT-116 cells); assay: cells; format: cell-based; remark: listed apart in the source
# [4] = test system: p53 signaling (p53RE-bla HCT-116 cells)
# [5] = rat
# [6] = test system: p53 signaling (p53RE-bla HCT-116 cells); assay: cells; conditions: Homo sapiens
# [7] = test system: p53 signaling (p53RE-bla HCT-116 cells); remark: listed apart in the source
# [8] = test system: p53 signaling (p53RE-bla HCT-116 cells); assay: cells; conditions: Homo sapiens; remark: listed apart in the source
# [9] = Homo sapiens, HCT-116, read-out: efficacy
smiles,measurement,setting,value
"OCCN(CCO)c1nc(N2CCCCC2)c2nc(N(CCO)CCO)nc(N3CCCCC3)c2n1 [Dipyridamole, reference compound]",EC50,"[1]; Homo sapiens, HCT-116, 0.5 h",4.36 µM
same,Emax,[1]; [9],174%
same,EC50,[2]; Homo sapiens,5.28 µM
same,half-life,in vitro,7.32 ± 0.59 min
"O=C1CC2(CCCC2)CC(=O)N1CCCCN1CCN(c2ncccn2)CC1 [buspirone, reference compound]",half-life,in vitro,7.2 ± 2.3 min
Cc1nc(N(C)C)nc(OC(=O)N(C)C)c1C [Pirimicarb],half-life,in vitro,11.7 ± 0.52 min
CCSC(=O)N1CCCCCC1 [Molinate],"p53 activation EC50, cherry pick confirmation",[3],inactive
same,"p53 activation EC50, primary screening",[3],inactive
same,"p53 activation efficacy, cherry pick confirmation",[3],inactive
same,"p53 activation efficacy, primary screening",[3],inactive
same,EC50,[1],Inactive
same,EC50,[2]; Homo sapiens,0.3 µM
same,Emax,[2]; [9],44.1%
same,"p53 activation EC50, cherry pick confirmation",[4],inactive
same,"p53 activation EC50, primary screening",[4],inactive
same,"p53 activation efficacy, cherry pick confirmation",[4],inactive
same,"p53 activation efficacy, primary screening",[4],inactive
same,"Viability EC50, cherry pick confirmation",p53RE-bla HCT-116 cells,inactive
same,"Viability EC50, primary screening",p53RE-bla HCT-116 cells,inactive
same,"Viability efficacy, cherry pick confirmation",p53RE-bla HCT-116 cells,inactive
same,"Viability efficacy, primary screening",p53RE-bla HCT-116 cells,inactive
same,Depletion after 16 h of incubation with cells,[5],97.58 ± 0.19%
same,EC50,[6]; HCT-116,0.35 µM
same,Emax,"[6]; HCT-116, read-out: efficacy",40.5%
same,EC50,"[6]; HCT-116, read-out: p53 activation EC50, cherry pick confirmation",0.355 µM
same,EC50,"[6]; HCT-116, read-out: p53 activation EC50, primary screening",1.85 µM
same,Emax,"[6]; HCT-116, read-out: p53 activation efficacy, cherry pick confirmation",39.9%
same,Emax,"[6]; HCT-116, read-out: p53 activation efficacy, primary screening",45.3%
same,half-life,in vitro,12 ± 0.18 min
CCOP(=S)(OCC)SCSCC [Phorate],half-life,in vitro,104 ± 22.4 min
"Cc1cc(=O)n(-c2ccccc2)n1C [antipyrine, reference compound]",half-life,in vitro,> 120 min
COP(=S)(OC)Oc1cc(Cl)c(I)cc1Cl [Iodenphos],p53 activation EC50,[3],inactive
same,p53 activation efficacy,[3],inactive
same,EC50,"[1]; Homo sapiens, HCT-116, 0.5 h",24.2 µM
same,EC50,[2]; Homo sapiens,37 µM
same,p53 activation efficacy,[7],81.587 and 107.715
same,EC50,[7]; read-out: p53 activation EC50,26.6 µM
same,p53 activation EC50,[4],inactive
same,Viability EC50,p53RE-bla HCT-116 cells,inactive
same,Viability efficacy,p53RE-bla HCT-116 cells,inactive
same,Depletion after 16 h of incubation with cells,[5],99.99 ± 0%
same,EC50,[6]; HCT-116,32.2 µM
same,Emax,"[6]; HCT-116, read-out: efficacy",84.9%
same,Emax,"[8]; HCT-116, read-out: p53 activation efficacy",54.2%
CCOP(=O)(NC(C)C)Oc1ccc(SC)c(C)c1 (stereo not shown) [Fenamiphos],"p53 activation EC50, No MS",[3],inactive
same,"p53 activation Efficacy, No MS",[3],inactive
same,efficacy,[1],0.37 ± 0.15 ( 33.54 ± 3.04 ) %
same,EC50,"[1]; Homo sapiens, HCT-116, 0.5 h",0.37 µM
same,efficacy,[2],1.34 ± 0.33 ( 75.12 ± 11.54 ) %
same,EC50,[2]; Homo sapiens,1.34 µM
same,EC50,"[7]; read-out: p53 activation EC50, RLM",0.958 µM
same,"p53 activation EC50, HLM",[4],inactive
same,"Viability EC50, HLM",p53RE-bla HCT-116 cells,inactive
same,"Viability EC50, No MS",p53RE-bla HCT-116 cells,inactive
same,"Viability EC50, RLM",p53RE-bla HCT-116 cells,inactive
same,"Viability Efficacy, HLM",p53RE-bla HCT-116 cells,inactive
same,"Viability Efficacy, No MS",p53RE-bla HCT-116 cells,inactive
same,"Viability Efficacy, RLM",p53RE-bla HCT-116 cells,inactive
same,Depletion after 16 h of incubation with cells,[5],99.41 ± 0.07%
same,EC50,[6]; HCT-116,1.5 µM
same,EC50,"[6]; HCT-116, read-out: p53 activation EC50, RLM",1.55 µM
same,EC50,"[8]; HCT-116, read-out: p53 activation EC50, HLM",1.49 µM
CCOP(=O)(SC(C)CC)N1CCSC1=O (stereo not shown) [Fosthiazate],half-life,in vitro,15.2 ± 1.93 min
COP(=S)(OC)SCn1nnc2ccccc2c1=O [Azinphos-methyl],p53 activation EC50,[3],inactive
same,p53 activation efficacy,[3],inactive
same,efficacy,[1],6.6 ± 0.91 ( 57.05 ± 12.27 ) %
same,EC50,"[1]; Homo sapiens, HCT-116, 0.5 h",6.6 µM
same,efficacy,[2],7.29 ± 2.15 ( 104.64 ± 29.38 ) %
same,EC50,[2]; Homo sapiens,7.29 µM
same,p53 activation efficacy,[7],77.2775 and 58.65
same,p53 activation EC50,[4],inactive
same,Viability EC50,p53RE-bla HCT-116 cells,inactive
same,Viability efficacy,p53RE-bla HCT-116 cells,inactive
same,Depletion after 16 h of incubation with cells,[5],94.04 ± 0.16%
same,EC50,[6]; HCT-116,11.6 µM
same,EC50,"[8]; HCT-116, read-out: p53 activation EC50",14.9 µM
